Read-outs that look alike come from different tables or passages of the source.

Data set [1] concerns the target T1, CYP3A4 (Homo sapiens, UniProt P08684).
The target of another data set is T2, CYP 2C8 (Homo sapiens, UniProt P10632).
T2 sequence (P10632 1-490): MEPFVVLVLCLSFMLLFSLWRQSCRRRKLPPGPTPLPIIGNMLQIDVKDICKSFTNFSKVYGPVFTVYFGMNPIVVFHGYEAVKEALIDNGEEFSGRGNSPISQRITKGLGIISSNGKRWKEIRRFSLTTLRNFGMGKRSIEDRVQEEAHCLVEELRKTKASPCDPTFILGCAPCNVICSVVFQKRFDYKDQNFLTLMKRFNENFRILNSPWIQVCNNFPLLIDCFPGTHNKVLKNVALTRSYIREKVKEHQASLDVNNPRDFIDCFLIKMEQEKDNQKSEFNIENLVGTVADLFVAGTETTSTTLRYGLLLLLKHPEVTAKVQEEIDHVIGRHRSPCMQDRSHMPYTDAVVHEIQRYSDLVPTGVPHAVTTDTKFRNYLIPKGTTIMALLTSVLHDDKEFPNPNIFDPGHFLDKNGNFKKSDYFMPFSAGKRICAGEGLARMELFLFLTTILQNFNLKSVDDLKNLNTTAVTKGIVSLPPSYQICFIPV
The data set can be described thus: Kinetic properties of fluorescein-based fluorogenic substrates with CYP 2C8. It counts as biochemical. Conditions: for v (1.25 uM): turnover rate at 1.25 uM substrate; for v (1.25 uM) / v (10 uM): 100 mM K+ phosphate buffer, pH 7.5; for v (10 uM): turnover rate at 10 uM substrate. As for the experimental part: (§1) Dibenzylfluorescein (DBF) was purchased form Gentest, Woburn, Mass. […] DBF, BOMF and DBOMF were diluted from a stock solution of 2 mM in acetonitrile to a 4×concentration of 80 μM in 100 mM K+ phosphate buffer. Seven 1:2 dilutions were made of each substrate of which 25 μl was added to the appropriate wells. […] The cytochrome P450 isozyme CYP3A4 was diluted to give a 0.5 pmol enzyme per well and added in a volume of 10 μl/well in K+ phosphate, pH 8.0. Enzymatic conversion of the substrate to products was allowed to proceed for 1 hour with fluorescence reads taken every four minutes on a fluorescence microtiter plate reader. The solution was illuminated using an 485/20 nm excitation filter and fluorescence emission was detected through a 530/25 nm the emission filter.
In deviation from the protocol described in Example 32, the phosphate-based buffer (100 mM K+ phosphate, pH 8.0) was replaced throughout the procedure by 100 mM K+ phosphate buffer, pH 7.5. […] Specifically, the substrate dibenzylfluorescein (DBF) (purchased form Gentest, Woburn, Mass.) and the sensor of the present invention DBOMF were tested for activity with CYP 2C8.

For data set [2], the target named is T1, CYP3A4. The data set can be described thus: Kinetic properties of fluorescein-based fluorogenic substrates with CYP 3A4. It counts as biochemical. The note with it: for K1/2max: concentration at 1/2 maximal velocity for sigmoidal kinetics; for vmax: for sigmoidal kinetics; for v (1.25 uM): turnover rate at 1.25 uM substrate; for v (1.25 uM) / v (10 uM): 100 mM K+ phosphate, pH 8.0; for v (10 uM): turnover rate at 10 uM substrate. The protocol: as §1

The target of data set [3] is T1, CYP3A4. The experiment in a line: in vitro. Conditions: pH 8, % inhibition, 10 μM drug; for inhibition at 20 min, 10 µM: Condition A, 20 min pre-incubation without NADP+ (no enzyme turnover), relative to 10 μM clotrimazole control; for inhibition at 40 min, 10 µM: Condition B, 40 min pre-incubation with NADP+ (enzyme turnover), relative to 10 μM ellipticine control.

Substrate in data set [4]: CCOCOc1ccc2cc(C#N)c(=O)oc2c1
The data set can be described thus: Kinetic properties of fluorogenic substrates with CYP 1A2. It counts as biochemical, human.

Substrate in data set [5]: CCOc1ccc2cc(C#N)c(=O)oc2c1
Described as above. It counts as biochemical, human.

T1 sequence (P08684 whole entry): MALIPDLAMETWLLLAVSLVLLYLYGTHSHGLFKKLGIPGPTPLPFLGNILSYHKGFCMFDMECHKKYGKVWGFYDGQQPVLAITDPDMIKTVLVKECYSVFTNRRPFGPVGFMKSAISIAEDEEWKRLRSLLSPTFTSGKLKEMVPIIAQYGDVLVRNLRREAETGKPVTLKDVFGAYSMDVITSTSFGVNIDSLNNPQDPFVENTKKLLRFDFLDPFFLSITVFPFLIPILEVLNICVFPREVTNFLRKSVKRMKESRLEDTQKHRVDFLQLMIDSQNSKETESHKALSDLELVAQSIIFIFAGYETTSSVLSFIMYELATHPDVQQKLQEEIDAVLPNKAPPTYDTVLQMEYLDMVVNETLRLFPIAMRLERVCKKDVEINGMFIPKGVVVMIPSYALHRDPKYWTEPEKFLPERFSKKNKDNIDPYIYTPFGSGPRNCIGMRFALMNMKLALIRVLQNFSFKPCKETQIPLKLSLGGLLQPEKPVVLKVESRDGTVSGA

As to `CCCCc1oc2ccccc2c1C(=O)c1cc(I)c(OCCN(CC)CC)c(I)c1` [Amiodarone], the “metabolism-dependent inhibitory activity against the CYP3A4 isozyme” value (shortened to “metabolism-dependent inhibitory activity”) at CYP3A4 [1] is given as “at least partial metabolism-dependent inhibitory activity”.

As for `O=C(OCc1ccccc1)c1ccccc1-c1c2ccc(=O)cc-2oc2cc(OCc3ccccc3)ccc12` [DBF, Dibenzylfluorescein, reference compound], at CYP 2C8, the type of kinetics entry was “MichaelisMenten”, the “v (1.25 uM)” value came to 0.16 min⁻¹ and the “v (10 uM)” value worked out at 0.37 min⁻¹. At CYP3A4 [2], the type of kinetics result was “sigmoidal”, the K1/2max came out at 0.80 µM, the vmax came out at 4.30 min⁻¹ and the “v (1.25 uM)” value came out at 3.27 min⁻¹. Further, on CYP3A4 [2], the “v (10 uM)” value was determined as 4.40 min⁻¹.

In the case of `O=C(OCOCc1ccccc1)c1ccccc1-c1c2ccc(=O)cc-2oc2cc(OCOCc3ccccc3)ccc12` [DBOMF, Dibenzyloxymethylfluorescein], on CYP 2C8, the type of kinetics result is “MichaelisMenten”, the “v (1.25 uM)” value worked out at 0.55 min⁻¹ and the “v (10 uM)” value stood at 1.54 min⁻¹. Also, on CYP3A4 [2], the type of kinetics result was “sigmoidal”, the K1/2max amounted to 1.50 µM, the vmax was determined as 16.00 min⁻¹ and the “v (1.25 uM)” value stood at 6.00 min⁻¹. The “v (10 uM)” value at CYP3A4 [2] is 15.50 min⁻¹.

As to `Cc1c2ccncc2c(C)c2c1[nH]c1ccccc12` [Ellipticine], the “metabolism-dependent inhibitory activity” value on CYP3A4 [1] (indicated by data for DBOMF) is “at least partial metabolism-dependent inhibitory activity”. In addition, the inhibition at 20 min, 10 µM came out at 92% on CYP3A4 [3] (substrate BOMCC), 97% against CYP3A4 [3] (substrate BOMR) and 40% on CYP3A4 [3] (substrate DBOMF). In addition, the inhibition at 40 min, 10 µM on CYP3A4 [3] (substrate BOMCC), at CYP3A4 [3] (substrate BOMR) and on CYP3A4 [3] (substrate DBOMF) was 100% in each case.

Consider `COc1ccc(Cc2nccc3cc(OC)c(OC)cc23)cc1OC` [Papaverine], for which the “metabolism-dependent inhibitory activity” value on CYP3A4 [1] (indicated by data for DBOMF) is reported as “at least partial metabolism-dependent inhibitory activity”. The inhibition at 20 min, 10 µM against CYP3A4 [3] (substrate BOMCC) turned out to be 34%; against CYP3A4 [3] (substrate BOMR), 69%; on CYP3A4 [3] (substrate DBOMF) it was 48%. Moreover, the figures for the inhibition at 40 min, 10 µM at CYP3A4 [3] (substrate BOMCC), against CYP3A4 [3] (substrate BOMR) and against CYP3A4 [3] (substrate DBOMF) were 99%, 92% and 90%, respectively.

B1: CYP 1A2 (Homo sapiens) (protein)
chain: MALSQSVPFSATELLLASAIFCLVFWVLKGLRPRVPKGLKSPPEPWGWPLLGHVLTLGKNPHLALSRMSQRYGDVLQIRIGSTPVLVLSRLDTIRQALVRQGDDFKGRPDLYTSTLITDGQSLTFSTDSGPVWAARRRLAQNALNTFSIASDPASSSSCYLEEHVSKEAKALISRLQELMAGPGHFDPYNQVVVSVANVIGAMCFGQHFPESSDEMLSLVKNTHEFVETASSGNPLDFFPILRYLPNPALQRFKAFNQRFLWFLQKTVQEHYQDFDKNSVRDITGALFKHSKKGPRASGNLIPQEKIVNLVNDIFGAGFDTVTTAISWSLMYLVTKPEIQRKIQKELDTVIGRERRPRLSDRPQLPYLEAFILETFRHSSFLPFTIPHSTTRDTTLNGFYIPKKCCVFVNQWQVNHDPELWEDPSEFRPERFLTADGTAINKPLSEKMMLFGMGKRRCIGEVLAKWEIFLFLAILLQQLEFSVPPGVKVDLTPIYGLTMKHARCEHVQARLRFSIN
For the molecule B1, in data set [4], the Km came to 11.0 µM, the kcat came to 0.35 s⁻¹ and the kcat/Km was 31800 M⁻¹ s⁻¹. Also, in data set [5], the Km is 26.0 µM, the kcat came to 0.733 s⁻¹ and the kcat/Km was determined as 28200 M⁻¹ s⁻¹.

By inhibition is commonly meant how much of the control response was suppressed. A lower inhibition goes with little suppression. Usually Km stands for the substrate concentration at which the rate is half of its maximum. For orientation: kcat means the number of substrate molecules converted per active site and unit of time at saturation. The term kcat/Km denotes the second-order rate constant that governs catalysis at low substrate concentration.

Source of the values: patent US7132252B2, “Methods for detecting the interaction of compounds with cytochrome P450 using optical molecular sensors” (Invitrogen Corporation, priority 1998, dated 2006).
